In the experiment the target is Metabotropic glutamate receptor 1 (Homo sapiens, UniProt Q13255). Briefly: Negative allosteric modulation of human mGluR1 expressed in HEK293A cells assessed as inhibition of glutamate-induced calcium mobilization. Background: Calcium flux is commonly read through the fluorescence of an indicator in the cells.

Data on eight compounds can be found in BindingDB's records for doi:10.1016/j.bmcl.2013.05.020 (Vanderbilt University Medical Center, 2013).

By IC50 is commonly meant the concentration needed to halve the response being measured.

Metabotropic glutamate receptor 1, sequence (Q13255 whole entry): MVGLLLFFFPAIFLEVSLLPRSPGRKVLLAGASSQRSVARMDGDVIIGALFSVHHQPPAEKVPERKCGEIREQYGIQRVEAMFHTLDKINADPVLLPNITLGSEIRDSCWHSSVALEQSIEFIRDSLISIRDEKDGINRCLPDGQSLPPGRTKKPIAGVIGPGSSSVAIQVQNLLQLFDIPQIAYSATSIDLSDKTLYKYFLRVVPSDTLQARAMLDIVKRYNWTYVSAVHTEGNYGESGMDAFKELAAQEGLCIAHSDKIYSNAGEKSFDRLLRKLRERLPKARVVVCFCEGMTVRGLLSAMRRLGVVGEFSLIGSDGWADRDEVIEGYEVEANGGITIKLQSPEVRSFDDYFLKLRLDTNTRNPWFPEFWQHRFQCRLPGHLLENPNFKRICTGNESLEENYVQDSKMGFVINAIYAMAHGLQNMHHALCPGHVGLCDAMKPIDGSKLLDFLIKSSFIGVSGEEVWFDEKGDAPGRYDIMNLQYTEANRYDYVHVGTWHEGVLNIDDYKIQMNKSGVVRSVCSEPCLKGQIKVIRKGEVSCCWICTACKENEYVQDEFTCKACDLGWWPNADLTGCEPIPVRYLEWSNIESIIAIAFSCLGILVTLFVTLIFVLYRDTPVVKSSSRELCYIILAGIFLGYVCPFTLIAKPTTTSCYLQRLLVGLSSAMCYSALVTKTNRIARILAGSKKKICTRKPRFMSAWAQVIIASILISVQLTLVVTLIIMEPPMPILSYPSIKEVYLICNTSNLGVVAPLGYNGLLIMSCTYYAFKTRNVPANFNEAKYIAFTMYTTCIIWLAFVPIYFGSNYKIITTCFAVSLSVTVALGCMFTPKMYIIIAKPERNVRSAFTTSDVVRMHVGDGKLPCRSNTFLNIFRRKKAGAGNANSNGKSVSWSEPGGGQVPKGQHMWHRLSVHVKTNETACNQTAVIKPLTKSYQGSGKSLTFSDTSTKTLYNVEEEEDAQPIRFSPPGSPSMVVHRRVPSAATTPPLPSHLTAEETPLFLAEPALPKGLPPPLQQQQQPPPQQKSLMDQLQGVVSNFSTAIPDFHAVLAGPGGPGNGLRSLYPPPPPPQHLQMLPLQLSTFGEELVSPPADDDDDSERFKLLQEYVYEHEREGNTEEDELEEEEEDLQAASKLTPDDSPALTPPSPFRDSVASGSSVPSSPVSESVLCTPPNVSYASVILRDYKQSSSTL

Regarding `C[C@@H]1CN(C(=O)C2CC2)CCN1c1ccccn1`, the IC50 was > 31.6 µM.

As for `C[C@@H]1CN(c2ccccn2)CCN1C(=O)C1CC1`, the IC50 is > 31.6 µM.

In the case of `C[C@@H]1CN(c2ccccn2)CCN1C(=O)C(C)(C)C`, the IC50 was > 31.6 µM.

In the case of `C[C@@H]1CN(C(=O)C23CC4CC(CC(C4)C2)C3)CCN1c1ccncc1`, the concentration for half-maximal inhibition (IC50) is > 31.6 µM.

Take `C[C@@H]1CN(C(=O)[C@H]2CC[C@H](C)CC2)CCN1c1ccccn1`: the IC50 was > 31.6 µM.

Consider `C[C@@H]1CN(C(=O)C23C4C5C6C4C2C6C53)CCN1c1ccccn1` (stereo partly drawn), for which the IC50 is > 31.6 µM.

`C[C@@H]1CN(C(=O)C2CCCCC2)CCN1c1ccccn1`: the half-inhibitory concentration (IC50) is > 31.6 µM.

In the case of `C[C@@H]1CN(C(=O)C(C)(C)C)CCN1c1ccccn1`, the IC50 is > 31.6 µM.
